Test results reported in patent US7358233B2, “Tetronic acid derivative” (Toudai TLO, Ltd, priority 2001, dated 2008).

How the values were obtained:
[1] = test system: HeLa cells and various other culture cells; experiment: Survival rate of a variety of cells, MTT method (all cell lines together); assay type: cell-based
Text: In this Example, HeLa cells and various other culture cells were used to measure the survival rate during the above-mentioned reporter analysis and VST addition. Specifically, in addition to HeLa cells (human cervical cancer cells), MCF-7 (human breast cancer cells), PC12NH (rat pheochromocytoma), MDA-MB-231 (human breast cancer cells), TIG-3 (human normal fibroblast cells), HeLa 786C cells (human cervical cancer cells), Saos-2 (telomerase and p53-deficient human cancer cells) and SUSM-1 (telomerase-deficient human cancer cells) were used.
The direct growth suppression activity of VST on these cells was measured using the MTT method. 100 μL cell suspension (5×10^4/mL) of each of the above-mentioned cells was dispensed into each well of a 96-well plate and cultured for 6 hours at 37° C. After culturing, VST solution diluted stepwise as in Example 4 was added thereto and cultured for another 24 hours. After culturing for 24 hours, 0.05 g/mL MTT solution (10 μL) was added to each well and incubation was performed at 37° C. for 4 hours. The medium was then removed, DMSO (100 μL) was added, and the absorbance at 530 nm was measured (FIG. 8).

[2] = test system: GRP78; experiment: Western blotting of endogenous GRP78 induction in HeLa78C6 cells; assay type: cell-based, human
Description: HeLa78C6 cells were cultured in DMEM media, 30 min before tunicamycin addition each concentration of VST was added, followed by 2 μg/mL of tunicamycin, and treated for 18 hours. The cells were collected, and the induction of GRP78 was detected by Western blotting using anti-GRP78 antibody (Stressgene). As a result, it was confirmed that VST inhibits not only the reporter assay, but also the induction of endogenous molecular chaperone GRP78 at the protein level in a concentration-dependent manner (FIG. 9A).
Furthermore, HeLa78C6 was cultured by the above-mentioned culturing method and pretreated for 30 min with 50 μM VST. Then, the cells were collected at each time point after the addition of tunicamycin to detect the GRP78 protein level by Western blotting.
Moreover, the GRP78 level 18 hours after the treatment with each of the indicated endoplasmic reticulum stress-inducing agents was detected using a method similar to that used for FIG. 9A.

[3] = test system: GRP78; experiment: Western blotting of GRP78 induction in HT1080 cells under endoplasmic reticulum stress; assay type: cell-based; settings: pretreated 30 min, 18 hours
Description: Specifically, […] HT-29 and HT1080 were cultured in RPMI1640 medium and pretreated for 30 min with 3 μM and 30 μM VST. Next, the GRP78 level was detected 18 hours after each endoplasmic reticulum stress treatment by Western blotting (FIG. 10). […] This phenomenon could be elucidated for the first time by the use of VST.

[4] = test system: HT1080 cells; experiment: Apoptosis (sub-G1) of HT1080 cells by propidium iodide FACS analysis; assay type: cell-based; settings: for sub-G1 stage induction (apoptosis): 3 μM VST
Description: HT1080 cells were pretreated for 30 min with 3 μM of VST, after fixing the cells the nuclei were stained with propidium iodide for FACS analysis. […] In contrast, only a very limited number of HT1080 cells underwent apoptosis with glucose starvation treatment alone.

[5] = test system: HT-29 cells; experiment: Combined use of VST and cisplatin, colony-forming ability of HT-29 cells; assay type: cell-based
Text: Enhancement of endoplasmic reticulum stress response promotes survival of cells under undernutritive conditions, and at the same time allows cells to acquire resistance to antitumor agents. Therefore, the inventors intended to examine the effect of VST on known antitumor agents. […] Therefore, the combined effect with other pharmaceutical agents could not be duly examined. Thus, cisplatin generally used for solid cancer treatment was used to examine the combined effect, due to its activity on cancer cells that is maintained even under low glucose conditions. Specifically, HT-29 cells were cultured by the above-mentioned method, pretreated for 30 min with VST, and then cultured for 18 hours. The cells were then treated for 4 hours with each concentration of cisplatin, and a week later their colony-forming ability was examined.

[6] = test system: HT-29 cells; experiment: Antitumor effect against HT-29 cells transplanted into nude mice; assay type: in vivo
Description: The antitumor effect of VST at the animal level was examined. Specifically, HT-29 cells were transplanted into nude mice and tumor was grown to 100 mm^3. Subsequently, each concentration of VST was administered through the tail vein, progress of cancer was followed each day thereafter, and the tumor was enucleated to compare its size. […] Furthermore, the combined effect with CDDP (cisplatin) was examined.

[7] = test system: HT-29 cells; experiment: Re-examination of apoptosis inducing effect on HT-29 cells; assay type: cell-based
Text: Since the in vitro strong effect could not be confirmed in the animal experiment, the apoptosis inducing effect of VST on HT-29 cells was reexamined.

[8] = test system: XBP1; experiment: Formation of spliced XBP1 in HT1080 transfected with Flag-tagged XBP1; assay type: cell-based
Text: To elucidate the mechanism of VST to express its activity, the effect of VST on several factors that function in the pathway of endoplasmic reticulum stress response was examined. In particular, Ire1α-XBP1 pathway, a pathway of endoplasmic reticulum stress response and is widely conserved from yeast to mammalian cells, was examined. XBP1 spliced at the mRNA level from a precursor (XBP1 (U)) by Ire1α, that is activated in response to endoplasmic reticulum stress turns into the activated form (XBP1(S)), transfers to the nucleus, and induces transcription of GRP78 by binding to the GRP78 promoter, ERSE.
A plasmid wherein a Flag tag is linked to the cloned XBP1 was transfected into HT1080, and the cell was pretreated for 30 min with VST. 6 hours after imposing each stress, proteasome inhibitor MG132 was added and the cells were cultured for another 6 hours to prepare samples. The full length and spliced XBP1 were detected in the samples using anti-Flag antibody. Examination on the formation of the spliced form XBP1 due to 2-DG treatment is shown in FIG. 16A and that due to tunicamycin treatment is shown in FIG. 16B. Since the spliced form of XBP1 is very rapidly degraded by proteasomes, its detection is difficult. To overcome this problem, proteasome inhibitor MG132 was added. […]

## CC/C1=C\C(CO)CC(C)C(OC2CC(O)C(OC3CC(OC)C(OC4CC(O)C(O)C(C)O4)C(C)O3)C(C)O2)C(C)CCCC2(C)C=C(C)C(C)CC23OC(=O)C(=C3O)C(=O)C2(CC)C1C(C)=CC1C(O)CC(=O)C(C)C12 (centres unmarked) [VST, versipelostatin]
[1]; VST 100 μg/mL, many cell lines
  degree of decrease of survival rate: ≤ 50%
[1]; VST approximately 10 μg/mL
  survival rate: slight decrease was observed in a few cell lines
[1]; VST final concentration of 1 μg/mL, all cell lines
  survival rate: No decrease in the survival rate was observed
[2]; 50 μM VST pretreatment 30 min, 12 to 18 hours after tunicamycin 2 μg/mL (FIG. 9B)
  GRP78 protein level, time course: inhibited
[2]; 18 hours (FIG. 9C)
  selectivity of the effect among endoplasmic reticulum stresses: higher selectivity against 2-deoxyglucose
[2]; 18 hours after treatment (FIG. 9C)
  induction of GRP78 by each endoplasmic reticulum stress-inducing agent: inhibited the induction of GRP78 against any of the endoplasmic reticulum stresses
[2]; each concentration of VST 30 min before tunicamycin 2 μg/mL, 18 hours (FIG. 9A)
  induction of endogenous GRP78 at the protein level: inhibits
[3]; 3 μM VST
  induction of GRP78 by 2-DG: inhibits the induction of GRP78
[3]; 30 μM VST
  GRP78 induction due to tunicamycin treatment: did not inhibit GRP78 induction
[4]; glucose starvation condition, after 48 hours
  sub-G1 stage induction (apoptosis): strong sub-G1 stage induction
[4]; in the presence of glucose
  sub-G1 stage induction (apoptosis): did not show any effect
[4]; glucose starvation conditions (FIG. 13)
  induction of apoptosis, sequential changes: time-dependent manner
[5]; VST 300 nM and 500 nM, then cisplatin 4 hours (FIG. 14)
  effect of the combined use of VST with cisplatin on colony-forming ability: further enhance the effect of cisplatin
[5]; glucose starvation condition
  activity on colony-forming ability under glucose starvation condition: enhance the activity
[6]; HT-29 tumor grown to 100 mm^3 in nude mice, VST through the tail vein (FIG. 15)
  antitumor effect (tumor size): showed antitumor effect, although the effect was not as strong as cisplatin
[6]; HT-29 tumor in nude mice
  combined effect with CDDP (cisplatin): no effect due to the combination could be confirmed
[7]
  apoptosis induction effect: fails to express apoptosis induction effect
  growth suppression effect in colony forming tests: shows growth suppression effect
[8]; 2-DG treatment, MG132 added (FIG. 16A)
  formation of spliced XBP1: inhibited
[8]; tunicamycin treatment, MG132 added (FIG. 16B)
  formation of spliced XBP1: did not inhibit the splicing of XBP1
